Assay results published in ChEMBL document CHEMBL3301464, “MMV Malaria Box anti-babesial screening”.

How the values were obtained:
[1] = (§1) MMV: Anti-babesial activity assay. Parasite pRBCs at 1% parasitemia were cultivated in 100 ul with 96-well plates at 2.5% and 5% hematocrits. The parasites were cultivated in triplicate for 4 days without replacement of the medium for each concentration of the compound.; assay type: functional, Babesia bovis
[2] = as §1; assay type: functional, Babesia bigemina
[3] = as §1; assay type: functional, Babesia equi
[4] = as §1; assay type: functional, Babesia caballi

Row | Compound | IC50 [1] | IC50 [2] | IC50 [3] | IC50 [4]
1 | O=C(Nc1ccc(N2CCN(Cc3ccccc3)CC2)cc1)c1cccs1 | 1.87 µM | 8.47 µM | 3.32 µM | 0.08 µM
2 | Clc1ccc2[nH]c3c(NCCCN4CCOCC4)ncnc3c2c1 | 7.75 µM | 1.1 µM | 7.38 µM | 1 µM
3 | COc1ccc(CCNC(=O)c2cc(S(=O)(=O)N3CC(C)CC(C)C3)ccc2Sc2ccc(F)cc2)cc1OC (stereo not given) | 1 µM | 0.086 µM | 12.7 µM | 0.13 µM
4 | O=C(NC1CCN(Cc2ccccc2)CC1)c1cc(C(=O)NC2CCN(Cc3ccccc3)CC2)cc(C(=O)NC2CCN(Cc3ccccc3)CC2)c1 | 0.06 µM | 0.077 µM | 15.2 µM | 5.3 µM
5 | CCOc1cc2c(cc1OCC)C(c1cc(C)c(O)c(C)c1)NCC2 (stereo not given) | 1 µM | 19.2 µM | 3.7 µM | 21.1 µM
6 | COc1ccc(C(O)(CCC(C)C)C(CN2CCOCC2)c2ccc(Cl)cc2)cc1 (stereo not given) | 0.091 µM | 0.068 µM | 3.45 µM | 14.8 µM
7 | CC(C)(C)c1ccc(C(=O)Nc2c3c(nn2-c2cccc(Cl)c2)CSC3)cc1 | 4.21 µM | 0.72 µM | 8.96 µM | 17 µM
8 | Cc1ccc(OCCCCCCNCCO)c(C)c1 | 12.1 µM | 9.88 µM | 5.09 µM | 13.3 µM
9 | Cc1ccc2c(C)nc(Nc3nc(C)cc(-c4ccccc4)n3)nc2c1 | 16.8 µM | 7.95 µM | 14.4 µM | 4.13 µM
10 | CCOC(=O)C1=C(C)N=c2sc(=Cc3ccccc3O)c(=O)n2C1c1ccc(OC)c2ccccc12 (stereo not given) | 21.7 µM | 16 µM | 10 µM | 8.43 µM
11 | Oc1c2c(nc3cc(-c4ccccc4)nn13)CCCC2 | 5.5 µM | > 25 µM | 0.44 µM | 1.29 µM
12 | COc1ccc(CCN2CCC(CN(C)Cc3cnn(-c4ccccc4)c3)CC2)cc1 | 0.87 µM | 4.29 µM | 0.62 µM | 2.45 µM
13 | CN1c2ccccc2N(C)C1c1ccc2c(c1)OCO2 | 4.93 µM | 0.1 µM | 10.1 µM | 0.36 µM
14 | Cc1cc(C)c2nc(N3CCC(C(=O)NCCCN4CCC(N5CCCCC5)CC4)CC3)sc2c1 | 2.74 µM | 3.91 µM | 0.64 µM | 4.77 µM
15 | CCCCOC(=O)c1ccc(Nc2cc(C)nc3ccc(OC)cc23)cc1 | 22.7 µM | 10 µM | 18.1 µM | 17.8 µM
16 | CC(C)CNC(=O)c1c(N)n(CCc2ccccc2F)c2nc3ccccc3nc12 | 10 µM | 7.67 µM | 13.3 µM | 1 µM
17 | Oc1ccc(Br)cc1CN1CCN(Cc2ccc(Cl)cc2)CC1 | 8.61 µM | 25 µM | 2.95 µM | 3.86 µM
18 | COc1cc2c(cc1OC)C1=NNC(=O)C1=NC(C)(C)C2 | 6.8 µM | 12.9 µM | 3.61 µM | 4.48 µM
19 | Cc1ccccc1OCCSc1nc2ccc(NC(=O)c3ccccc3)cc2s1 | 0.9 µM | 0.26 µM | 1 µM | 16.9 µM
20 | CCN(CC)c1ccc(NC(=O)c2cccs2)cc1 | 24.1 µM | 17.5 µM | 13.4 µM | 10 µM

Row | Compound | IC50 [1] | IC50 [2] | IC50 [3] | IC50 [4]
21 | CCOC(=O)c1cnc2ccc(CC)cc2c1O | > 25 µM | 17.5 µM | 14.9 µM | 13.5 µM
22 | CCN(CC)c1cc(C)c2cc(NC(=O)c3cccc(OC)c3)ccc2n1 | 10 µM | 8.99 µM | 0.46 µM | 9.33 µM
23 | OC(CNC1CCCC1)Cn1c2ccccc2c2ccccc21 (stereo not given) | 1 µM | 17.3 µM | 3.9 µM | 3.53 µM
24 | Cn1c(=O)n(C)c2cc(CNCCNc3ccnc4cc(Cl)ccc34)ccc21 | 0.071 µM | 0.081 µM | 0.1 µM | 0.489 µM
25 | COc1ccc(-c2nc3cc(Cc4ccc5[nH]c(-c6ccc(OC)cc6)nc5c4)ccc3[nH]2)cc1 | 5.58 µM | 7.5 µM | 8.12 µM | 3.21 µM
26 | CCOc1ccc(Nc2c3ccccc3nc3ccccc23)cc1 | 0.72 µM | 0.1 µM | 4.52 µM | 7.54 µM
27 | Cc1cc(Nc2ccc(C)c(Cl)c2)n2nc(C(F)(F)F)nc2n1 | 15 µM | 14.8 µM | > 25 µM | 0.69 µM
28 | Cc1ccc(S(=O)(=O)c2c(COC(=O)c3cccc(C)c3)c(-c3ccccc3)nn2C)cc1 | 0.068 µM | 1 µM | 12.7 µM | 20.4 µM
29 | O=C(Nc1ccc(-c2nc3ccccc3[nH]2)cc1)c1ccc(Cl)c(Cl)c1 | 18.5 µM | 4.13 µM | 6.24 µM | 3.86 µM
30 | Cc1ccc(-c2cc(C(=O)Nc3ccc(S(=O)(=O)N4CCCCC4)cc3)[nH]n2)c(O)c1 | > 25 µM | 2.45 µM | 8.25 µM | 10 µM
31 | COc1ccc(CNC(=O)c2cc3c(=O)n4ccccc4nc3n(CCc3ccccc3)c2=N)cc1 | 0.1 µM | 4.27 µM | 4.74 µM | 0.686 µM
32 | CN(C)CCNc1cc(-c2ccccc2)nc2ccccc12 | 4.65 µM | 3.03 µM | 0.59 µM | 0.1 µM
33 | COc1ccc(C2N(C)c3ccccc3N2C)cc1 | 4.77 µM | 2.16 µM | 7.89 µM | 4.6 µM
34 | COc1ccc(C(C)=O)cc1N1C(=O)C2C(C1=O)C1(c3ccccc3)C(=O)C2(c2ccccc2)C(c2ccc(C)cc2)=C1c1ccc(C)cc1 (stereo not given) | 17.5 µM | 15.5 µM | 16.9 µM | 8.46 µM
35 | COc1ccc(C(=O)C(CCC(CNC(C)(C)C)C(=O)c2ccc(OC)cc2)CNC(C)(C)C)cc1 (stereo not given) | 0.57 µM | 2.95 µM | 0.17 µM | 4.68 µM
36 | O=C(CCc1ccco1)NC1CCN(CC2(c3ccc(Cl)cc3)CCC2)CC1 | 5.06 µM | 1.87 µM | 3.39 µM | > 25 µM
37 | COc1ccc(C2=C(c3ccc(OC)cc3)C3(c4ccccc4)C(=O)C2(c2ccccc2)C2C(=O)N(c4ccc(C)cc4)C(=O)C23)cc1 (stereo not given) | 15.4 µM | 14.1 µM | 14.2 µM | 14.7 µM
38 | COc1ccc(C2c3ccc4ccccc4c3Oc3ncn(CCCN(C)C)c(=N)c32)cc1 (stereo not given) | 0.052 µM | 0.033 µM | 0.49 µM | 7.26 µM
39 | COCCNCC(O)Cn1c2ccc(Cl)cc2c2cc(Cl)ccc21 (stereo not given) | > 25 µM | 1.87 µM | 16.3 µM | 5.64 µM
40 | CCCCCCn1c(=N)n(CC(O)COc2cccc(C)c2)c2ccccc21 (stereo not given) | 0.083 µM | 2.95 µM | 3.73 µM | 15.9 µM

Row | Compound | IC50 [1] | IC50 [2] | IC50 [3] | IC50 [4]
41 | COc1ccc(C(=O)Nc2ccc3nc(N4CCCCC4)cc(C)c3c2)cc1OC | 14.3 µM | 0.46 µM | 6.99 µM | 0.51 µM
42 | CCOC(=O)c1ccc2nc(-c3ccccc3)cc(O)c2c1 | > 25 µM | 14.1 µM | > 25 µM | 14.2 µM
43 | CCOC(=O)C1=CN(C)C=C(C(=O)OCC)C1c1cc(Br)c(OCC)c(OC)c1 | 0.091 µM | 0.1 µM | 14.1 µM | 2.63 µM
44 | CCOc1ccc(N2C(N)=NC(N)=NC2(C)C)cc1 | 15.2 µM | 5.9 µM | 14 µM | 2.95 µM
45 | C=C(C)CCC(C)N1CCC(N2CCC(C(=O)NCCc3ccccc3)CC2)CC1 (stereo not given) | 4.37 µM | 2.4 µM | 4.89 µM | 12.9 µM
46 | CC(O)(c1ccc(Cl)cc1)C(CN1CCCCC1)c1ccccc1 (stereo not given) | 13.3 µM | 0.87 µM | 7.09 µM | 0.08 µM
47 | OC(CNC1CCCCC1)Cn1c2ccc(I)cc2c2cc(I)ccc21 (stereo not given) | 1.3 µM | 16.5 µM | 2.17 µM | 3.73 µM
48 | CCOC(=O)c1c(C)n(-c2ccccc2)c2ccc(OC(=O)c3cc(OC)c(OC)c(OC)c3)cc12 | 18.6 µM | 12.6 µM | 16.5 µM | 5.9 µM
49 | COc1cc2c3cc1Oc1c(OC)c(OC)cc4c1C(Cc1ccc(O)c(c1)Oc1ccc(cc1)CC3N(C)CC2)N(C)CC4 (stereo not given) | 0.068 µM | 10 µM | 0.26 µM | 3.86 µM
50 | CCn1c(SCC(=O)Nc2cc(C(F)(F)F)ccc2Cl)nc2ccccc2c1=O | 25 µM | 3.32 µM | 15.8 µM | 14.8 µM
51 | CCN(CC)CCCNc1ccnc2cc3ccccc3cc12 | 2.7 µM | 1.3 µM | 15.9 µM | 25 µM
52 | CCOc1ccc(C2N(C)c3ccccc3N2C)cc1 | 5.5 µM | 0.85 µM | 3.53 µM | 0.5 µM
53 | COc1ccc(OC)c(C2C3=C(CC(C)(C)CC3=O)N(c3ccc(Cl)c(Cl)c3)C3=C2C(=O)CC(C)(C)C3)c1 | 10 µM | 17.8 µM | 10.7 µM | 0.14 µM
54 | OC(CNCC1CCCO1)Cn1c2ccc(Cl)cc2c2cc(Cl)ccc21 (stereo not given) | 21.1 µM | 0.79 µM | 11.9 µM | 10 µM
55 | CCOC(=O)c1c[nH]c2c(CC)cccc2c1=O | 9.61 µM | 5.09 µM | 13.4 µM | 14.6 µM
56 | CC(NCc1ccccc1)c1cc(Cl)ccc1O (stereo not given) | 3.81 µM | 12 µM | 8.25 µM | 16.6 µM
57 | Cc1c(C)n(Cc2ccc(F)cc2)c2ccc(C(=O)NCc3ccco3)cc12 | 24.7 µM | 0.288 µM | 15.8 µM | 10 µM
58 | COc1ccc2c(c1)OC(O)(C(F)(F)C(F)(F)F)CC2=O (stereo not given) | > 25 µM | 15.7 µM | 17.7 µM | 11.8 µM
59 | COc1cc(C(=O)Nc2ccc(-c3nc4ccccc4[nH]3)cc2)cc(OC)c1OC | 13.3 µM | 1 µM | 15.9 µM | 11 µM
60 | COc1ccc(C)c2sc(N(Cc3cccnc3)C(=O)c3ccc(C#N)cc3)nc12 | 0.24 µM | 0.55 µM | 5.69 µM | 15.2 µM
